Earlier results, collected in patent US5840770A, “Method of killing tumor cells” (Hill Medical Corporation, priority 1997, dated 1998).
Blank lines part the entries; values can stand above or below the compound they belong to.

How the values were obtained:
cholinergic receptors = conditions: in vivo
[1] = not given; remark: listed apart in the source
[2] = normally
[3] = tested on: mouse and rat transplanted tumors; conditions: in vivo
[4] = tested on: low-grade non-Hodgkin's lymphoma, cutaneous T cell lymphoma, chronic myelogenous leukemia, Kaposi's sarcoma and especially hairy cell leukemia
serum potassium = conditions: in vivo

Compound: [K+] [potassium]
potassium intake excreted in the urine [2]: 80-90%

Compound: Glucagon: glucagon alone
effect on transplanted tumors [3]: arrested these cancers

Compound: Interferon-alpha
efficacy ([4]; listed lymphomas, leukemias, Kaposi's sarcoma): effective
effect on other tumors ([4]; tumors other than those listed): no effect

Compound: insulin
serum potassium concentration (serum potassium): lowers serum potassium concentration
effect on transplanted tumors [3]: no therapeutic effect

Now from value to compound:

duration (cholinergic receptors): 4 to 8 h
onset (cholinergic receptors): 15 to 30 min
Compound: CC[C@@H]1C(=O)OC[C@@H]1Cc1cncn1C [Pilocarpine, pilocarpine]

infused glucose retained (0.8 gm/kg/hour): 95%
maximum infusion rate without producing glycosuria (in vivo): 0.5 gm/kg/hour
osmolarity ([1]; 5% dextrose): 253 mOsm/L
tonicity ([1]; 5% dextrose solution): isotonic
Compound: O=C[C@H](O)[C@@H](O)[C@H](O)[C@H](O)CO [dextrose]
